Test results: patent US20170107207A1, “AMINOPYRAZOLONE DERIVATIVE” (DAIICHI SANKYO COMPANY, LIMITED, priority 2014, published 2017)

Assays:
Assay type in all cases: cell-based
FaDu = experiment: Cell growth inhibition test, FaDu; details: Homo sapiens, 72 h, Head and neck cancer, 3 days, CellTiter-Glo
Description: (§1) A cell growth inhibition test was carried out by treating a cultured cancer cell line with a test compound for a given period and then counting the number of viable cells by CellTiter-Glo Luminescent Cell Viability Assay (manufactured by Promega Corp.).
(§2) The following cells were inoculated to a 384-well plate containing the compound prepared in advance at predetermined concentrations. […]
(§3) The cells thus inoculated were cultured at 37° C. for 3 days under 5% CO2. […] Then, luminescence intensity was measured using a plate reader.
(§4) The number of viable cells and luminescence intensity have been confirmed to correlate with each other. Therefore, the rate of cell growth was calculated according to the following expression: Rate of cell growth (T/C %) of a test compound-supplemented well=100×[(B−C)/(A−C)] wherein A represents the luminescence intensity (final culture date) of a test compound-free well; B represents the luminescence intensity (final culture date) of a test compound-containing well; and C represents the luminescence intensity (day of cell inoculation) of a well at the start of contact of the cells with the test compound.
(§5) T/C % at the concentration of each of the serially diluted test compounds was determined. […]

CAPAN-2 = experiment: Cell growth inhibition test, CAPAN-2; details: Homo sapiens, 72 h; CAPAN-2, Pancreatic cancer, 3 days, CellTiter-Glo
Description: as §1, §2, §3, §4, §5

RAMOS = experiment: Cell growth inhibition test, RAMOS; details: Homo sapiens, 72 h, Lymphoma, 3 days, CellTiter-Glo
Description: as §1, §2, §3, §4, §5

[1] = system: human lymphoma cell line RAMOS cells; experiment: Cell growth inhibition test using RAMOS cell, ATP assay (CellTiter-Glo); details: Homo sapiens, Ramos, 72 h, cultured 3 days, 50% growth inhibition concentration
Procedure, shortened: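 RAMOS cells seeded at 4000 cells/well with compound and cultured 3 days at 37° C, 5% CO2; viability by CellTiter-Glo luminescence. Growth rate T/C % = 100×[(B−C)/(A−C)] using day-0 and final readings; GI50 interpolated from the two concentrations bracketing 50% growth.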

KARPAS 422 = experiment: Cell growth inhibition test, KARPAS 422; details: Homo sapiens, 72 h; KARPAS 422, Lymphoma, 3 days, CellTiter-Glo
Description: as §1, §2, §3, §4, §5

DU 145 = experiment: Cell growth inhibition test, DU 145; details: Homo sapiens, 72 h; DU 145, Prostate cancer, 3 days, CellTiter-Glo
Description: as §1, §2, §3, §4, §5

HUH-7 = experiment: Cell growth inhibition test, HUH-7; details: Homo sapiens, 72 h; HUH-7, Liver cancer, 3 days, CellTiter-Glo
Description: as §1, §2, §3, §4, §5

PANC-1 = experiment: Cell growth inhibition test, PANC-1; details: Homo sapiens, 72 h; PANC-1, Pancreatic cancer, 3 days, CellTiter-Glo
Description: as §1, §2, §3, §4, §5

NALM-6 = experiment: Cell growth inhibition test, NALM-6; details: Homo sapiens, 72 h; NALM-6, Leukemia, 3 days, CellTiter-Glo
Description: as §1, §2, §3, §4, §5

SW620 = experiment: Cell growth inhibition test, SW620; details: Homo sapiens, SW-620, 72 h; SW620, Large intestine cancer, 3 days, CellTiter-Glo
Description: as §1, §2, §3, §4, §5

| GI50 (RAMOS) | GI50 [1] | GI50 (KARPAS 422) | GI50 (HUH-7) | GI50 (PANC-1) | GI50 (SW620) | SMILES | GI50 (FaDu) | GI50 (CAPAN-2) | GI50 (DU 145) | GI50 (NALM-6) |
| --- | --- | --- | --- | --- | --- | --- | --- | --- | --- | --- |
| 130 nM | 140 nM | 200 nM | 670 nM | 900 nM | 840 nM | CCOc1ccc(Cl)cc1C(=O)NCC(C)(C)CC(=O)Nc1c([C@H](C)CN(C)C)n(C)n(-c2ccccc2)c1=O [Example 68, 5-Chloro-N-[4-({5-[(1R)-2-(dimethylamino)-1-methylethyl]-1-methyl-3-oxo-2-phenyl-2,3-dihydro-1H-pyrazol-4-yl}amino)-2,2-dimethyl-4-oxobutyl]-2-ethoxybenzamide] | 210 nM | 640 nM | 530 nM | 130 nM |
| 220 nM | 310 nM | 350 nM | 900 nM | 2000 nM | 1600 nM | CCOc1ncc(Cl)cc1C(=O)NCC(C)(C)CC(=O)Nc1c([C@H](C)CN(C)C)n(C)n(-c2ccccc2)c1=O [Example 73, 5-Chloro-N-[4-({5-[(1R)-2-(dimethylamino)-1-methylethyl]-1-methyl-3-oxo-2-phenyl-2,3-dihydro-1H-pyrazol-4-yl}amino)-2,2-dimethyl-4-oxobutyl]-2-ethoxypyridine-3-carboxamide] | 460 nM | 980 nM | 1100 nM | 330 nM |
| 160 nM | 130 nM | 450 nM | 360 nM | 1200 nM | 910 nM | CCOc1cc(F)c(Cl)cc1C(=O)NCC(C)(C)CC(=O)Nc1c(COC)n(C)n(-c2ccccc2)c1=O [Example 113, 5-Chloro-2-ethoxy-4-fluoro-N-(4-{[5-(methoxymethyl)-1-methyl-3-oxo-2-phenyl-2,3-dihydro-1H-pyrazol-4-yl]amino}-2,2-dimethyl-4-oxobutyl)benzamide] | 350 nM | 750 nM | 650 nM | 270 nM |
